The record followed here is publication PMC7756582, “Prodrugs of γ‐Alkyl‐Modified Nucleoside Triphosphates: Improved Inhibition of HIV Reverse Transcriptase” (Angewandte Chemie (International Ed. in English), 2020).

Experiment [1] deals with T1, HIV reverse transcriptase (RT) (Human immunodeficiency virus type 1 group M subtype B, UniProt P03366).
T1 construct: reverse transcriptase (RT; an HIV‐encoded RNA‐dependent DNA polymerase); purchased Roboklon
Nature of the experiment: Primer extension assay with HIV-RT. The class given is biochemical, HIV-1. As to conditions: for primer extension by HIV-RT (substrate properties): with the other three canonical triphosphates, HIV-RT 6 U. As to the method: Primer-extension reactions:
HIV-RT and human DNA polymerase β and γ were obtained from Roboklon, human DNA polymerase α was obtained from Chimerx.
The primers and templates were purchased from Life Technologies and Microsynth. The fluorescent labeled primer was purchased
from Metabion and Microsynth. The gels were prepared with the size of 450mm×200mm×0.4mm according to the electrophoresis
5’-FITC and 5’-Cy3 labeled Primer-sequence:
The primer extension assays were performed under the following conditions:
FITC and Cy3 labeled primer extension assay:
1) Hybridization: After 5 min incubation at 95 °C in 20 mM Tris-HCl (pH 7.6) and 50 mM NaCl, the hybridization/annealing of the
primer to the template strand was achieved by a cooling phase from 95 °C to […] lasted more than 2 hours. […]
The assays were separated using a denaturating PAGE (15%). The result was visualized by fluorescence imaging. […]
(§1) The result was visualized by fluorescence imaging. […]
as §1

For a further experiment, the target named is T2, human DNA polymerase β (Homo sapiens, UniProt P06746).
T2 construct: purchased Roboklon
Kind of experiment: Primer extension assay with human DNA polymerase β. The class given is biochemical. As to conditions: single triphosphate, 66 μM, Pol β 6 U, 60 min. How it is done:
Two different set‐ups have been used. First, a mixture of dATP, dCTP, dGTP, and γ‐alkyl‐TTP (N*) or ‐d4TTP (T*) was used as a mixture. The results obtained from these experiments were compared to those in which just γ‐alkyl‐TTP (N) or d4TTP (T) was used. In each experiment a primer extension without added polymerase (negative control, ‐ lane) and an experiment in which all four canonical NTPs were added (positive control, +lane) were used as controls.
Figure 4 Primer extension assay using DNA polymerase β and the γ‐alkyl‐dNTP 7 and 15. Lane 1 (−): dATP, dGTP, dCTP and TTP without human DNA polymerase β; lane 2 (+): dATP, dGTP, dCTP, and TTP with human Pol β; lane 3 (N, C4‐T): γ‐C4‐TTP 15 w; lane 4 (N, C18‐T): γ‐C18‐TTP 15 z; lane 5 (T, C4‐d4T): γ‐C4‐d4TTP 7 w; lane 6 (T, C11‐d4T): γ‐C11‐d4TTP 7 x; lane 7 (T, C18‐d4T): γ‐C18‐d4TTP 7 z; lane 8 (d4TTP): d4TTP. […]
Anti-HIV activity assay: Inhibition of HIV-1(IIIB)- and HIV-2(ROD)-induced cytopathicity in wild-type CEM/0 and thymidine kinase-deficient CEM/TK- cell cultures was measured in microtiter 96-well plates containing ~3·105 CEM cells/mL infected with 100 CCID50 of HIV per milliliter and containing appropriate dilutions of the test compounds. […]
2) For HIV- RT assay: The final assay solution (10 µL) consists of 50 mM Tris-HCl (pH 8.6 at 22 °C), 10 mM MgCl2, 40mM KCl, dNTPs 66 µM, HIV RT 6 U, Hybrid 0.32 µM in a reaction volume of 10 µL, incubated 37 °C for 15 min, 80 °C for 3 min; 50 mA, 45w for 4 h. […] The result was visualized by fluorescence imaging.
3) For human DNA pol β assay: The final assay solution (10 µL) consists of 50 mM Tris-HCl (pH 8.7), 10 mM MgCl2, 100mM KCl, 1.0 mM dithiothreitol, 0.4 mg/ml of bovine serum albumin, 15% glycerol, dNTPs 66 µM, DNA Polymerase Beta 6 U, Hybrid 0.32 µM in a reaction volume of 10 µL, incubated 37 °C for 60 min, 80 °C for 3 min; 50 mA, 45w for 4 h. […] The result was visualized by fluorescence imaging. […]

Molecules are shown by their SMILES.

For `Cc1cn(C2C=CC(COP(=O)(O)OP(=O)(O)OP(=O)(O)O)O2)c(=O)[nH]c1=O` (centres unmarked) [2 t, d4TTP, reference compound], the “primer extension by HIV-RT (substrate properties)” value (from here on “primer extension by HIV-RT”) in experiment [1] (60 min incubation, dNTPs 66 μM) is recorded as “only the n+1 band is visible”. Further, on human DNA polymerase β, the “primer extension by DNA polymerase β (substrate properties)” value (“primer extension by DNA polymerase β” for short) is “efficiently incorporated”.
On to `CCCCOP(=O)(O)OP(=O)(O)OP(=O)(O)OCC1C=CC(n2cc(C)c(=O)[nH]c2=O)O1` (centres unmarked) [7 w, γ‐C4‐d4TTP], for which the “primer extension by HIV-RT” value in experiment [1] (15 min incubation) is “single incorporation and an immediate chain termination”. In addition, the “comparison of substrate properties for HIV-RT” value in experiment [1] (incubation 10, 20, 40 and 60 min, conversion of primer to n+1 product) is given as “better substrates”. Moreover, the “primer extension by DNA polymerase β” value at human DNA polymerase β is reported as “good substrate”.
On to `CCCCCCCCCCCCCCCCCCOP(=O)(O)OP(=O)(O)OP(=O)(O)OCC1C=CC(n2cc(C)c(=O)[nH]c2=O)O1` (centres unmarked) [7 z, γ‐C18‐d4TTP], for which the “primer extension by HIV-RT” value in experiment [1] (30 min incubation) is listed as “immediate chain termination”; in experiment [1] (60 min incubation, dNTPs 66 μM) it was “Only the n+1 band was detected”. Also, the “primer extension by DNA polymerase β” value at human DNA polymerase β is “no incorporation was detected”.
